Measured values as given in patent US20090143279A1 (priority 2007, published 2009).
Read-outs that look alike come from different tables or passages of the source.

Assays:
[1] = test system: mitochondrial membrane potential; type: cell-based, mouse; settings: for ΔΨm (composite Z-score): normalized score vs mock-treated (DMSO) wells
reactive oxygen species = type: cell-based, mouse; settings: for ROS (composite Z-score): normalized score vs mock-treated (DMSO) wells
OXPHOS gene expression = type: cell-based, mouse; settings: for GE-HTS (composite Z-score): normalized score vs mock-treated (DMSO) wells
nuOXPHOS transcripts = type: cell-based, mouse; settings: for nucOX (composite Z-score): normalized score vs mock-treated (DMSO) wells
mtOXPHOS transcripts = type: cell-based, mouse; settings: for mitoOX (composite Z-score): normalized score vs mock-treated (DMSO) wells
cytochrome c = type: cell-based, mouse; settings: for cyt c (composite Z-score): normalized score vs mock-treated (DMSO) wells
C2C12 myotubes = settings: for Viability (composite Z-score): normalized score vs mock-treated (DMSO) wells
[2] = test system: cellular dehydrogenase activity; settings: for MTT (composite Z-score): normalized score vs mock-treated (DMSO) wells
[3] = 20 μM, composite Z-score vs DMSO
[4] = normalized composite Z-score vs mock-treated (DMSO) wells, Conc 20 μM
[5] = composite Z-score vs DMSO, Conc 20 μM
[6] = composite Z-score vs DMSO wells, Conc 20 μM
[7] = composite Z-score vs mock-treated (DMSO) wells, concentration of each compound in μM
[8] = composite Z-score vs mock-treated (DMSO) wells, Conc 20 μM
[9] = composite Z-score vs DMSO, Conc 10.62 μM

Chain of cytochrome c (P62897 whole entry): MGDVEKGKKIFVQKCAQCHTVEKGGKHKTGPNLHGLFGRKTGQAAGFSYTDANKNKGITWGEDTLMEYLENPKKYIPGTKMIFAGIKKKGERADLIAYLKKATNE

COC(=O)/C(=C1/OC(=O)C(c2ccccc2)=C1O)c1ccccc1 [vulpinic acid]
ΔΨm [1, 3]: −3.484
ROS (reactive oxygen species; [3]): 1.407
GE-HTS (OXPHOS gene expression; [3]): −0.152
nucOX (nuOXPHOS transcripts; [3]): 0.168
mitoOX (mtOXPHOS transcripts; [3]): −0.792
cyt c (cytochrome c; [3]): 1.037
Viability (C2C12 myotubes; [3]): −1.120
MTT [2, 3]: 0.403

C=C1CCC(=O)C(C)CCC2C1CC2(C)C (centres unmarked) [dihydrocaryophyllen-5-one]
ΔΨm [1, 4]: 0.090
ROS (reactive oxygen species; [4]): 0.483
GE-HTS (OXPHOS gene expression; [4]): −0.496
nucOX (nuOXPHOS transcripts; [4]): −0.513
mitoOX (mtOXPHOS transcripts; [4]): −0.317
cyt c (cytochrome c; [4]): 0.620
Viability (C2C12 myotubes; [4]): 0.219
MTT [2, 4]: −1.453

COC(=O)C(C)c1ccc(C(=O)c2cccs2)cc1 (centres unmarked) [suprofen methyl ester]
ΔΨm [1, 5]: 0.577
ROS (reactive oxygen species; [5]): 0.591
GE-HTS (OXPHOS gene expression; [5]): 0.139
nucOX (nuOXPHOS transcripts; [5]): 0.216
mitoOX (mtOXPHOS transcripts; [5]): −0.048
cyt c (cytochrome c; [5]): −0.191
Viability (C2C12 myotubes; [5]): 0.611
MTT [2, 5]: −1.160

CCc1ccc2c(O)c3c(cc2c1C(=O)OC)C(=O)c1c(O)ccc(O)c1C3=O [bisanhydrorutilantinone]
ΔΨm [1, 5]: −2.223
ROS (reactive oxygen species; [5]): 0.236
GE-HTS (OXPHOS gene expression; [5]): −0.727
nucOX (nuOXPHOS transcripts; [5]): −0.268
mitoOX (mtOXPHOS transcripts; [5]): −1.532
cyt c (cytochrome c; [5]): 0.148
Viability (C2C12 myotubes; [5]): −0.493
MTT [2, 5]: −1.755

methyl 7-deshydroxypyrogallin-4-carboxylate
ΔΨm [1, 4]: −1.695
ROS (reactive oxygen species; [4]): 0.145
GE-HTS (OXPHOS gene expression; [4]): −1.502
nucOX (nuOXPHOS transcripts; [4]): −1.394
mitoOX (mtOXPHOS transcripts; [4]): −1.395
cyt c (cytochrome c; [4]): 0.133
Viability (C2C12 myotubes; [4]): −0.873
MTT [2, 4]: −1.261

C[C@]12CC[C@H]3[C@@H](CC[C@]4(O)C[C@@H](O)CC[C@]34C(=O)O)[C@@]1(O)CC[C@@H]2C1=CC(=O)OC1 [strophanthidinic acid]
ΔΨm [1, 4]: −0.875
ROS (reactive oxygen species; [4]): −0.059
GE-HTS (OXPHOS gene expression; [4]): −0.553
nucOX (nuOXPHOS transcripts; [4]): −0.400
mitoOX (mtOXPHOS transcripts; [4]): −0.726
cyt c (cytochrome c; [4]): 0.166
Viability (C2C12 myotubes; [4]): −0.745
MTT [2, 4]: −1.651

Cc1cc(NC(=O)C2=C(O)c3ccccc3S(=O)(=O)N2C)no1 [isoxicam]
ΔΨm [1, 6]: −1.091
ROS (reactive oxygen species; [6]): 0.030
GE-HTS (OXPHOS gene expression; [6]): −0.423
nucOX (nuOXPHOS transcripts; [6]): −0.221
mitoOX (mtOXPHOS transcripts; [6]): −0.770
cyt c (cytochrome c): 0.177
cyt c (cytochrome c; [6]): −0.169
Viability (C2C12 myotubes; [6]): 0.010
MTT [2, 6]: −0.152

CC(=O)O[C@H]1CC[C@]2(C)C(C[C@H](OC(C)=O)[C@]3(C)C4=CC(=O)OC(c5ccoc5)[C@@]4(C)CCC23)C1(C)C (some centres unmarked)
ΔΨm (composite Z-score) ([1]; Conc 20 μM): −0.208
ROS (composite Z-score) (reactive oxygen species; Conc 20 μM): 1.848
GE-HTS (composite Z-score) (OXPHOS gene expression; Conc 20 μM): −1.124
nucOX (composite Z-score) (nuOXPHOS transcripts; Conc 20 μM): −1.228
mitoOX (composite Z-score) (mtOXPHOS transcripts; Conc 20 μM): −0.653
cyt c (composite Z-score) (cytochrome c; Conc 20 μM): 0.161
Viability (composite Z-score) (C2C12 myotubes; Conc 20 μM): −0.292
MTT (composite Z-score) ([2]; Conc 20 μM): −0.810

CC(C(=O)O)[C@H]1CCC2C3CC=C4C[C@@H](O)CC[C@]4(C)C3CC[C@@]21C (some centres unmarked)
ΔΨm [1, 7]: −0.402
ROS (reactive oxygen species; [7]): 0.315
GE-HTS (OXPHOS gene expression; [7]): 0.756
nucOX (nuOXPHOS transcripts; [7]): 0.793
mitoOX (mtOXPHOS transcripts; [7]): 0.486
cyt c (cytochrome c; [7]): −0.309
Viability (C2C12 myotubes; [7]): −0.295
MTT [2, 7]: −0.244

CC(=O)O[C@H]1C[C@@H](OC(C)=O)C(C)(C)[C@@H]2C[C@@H](OC(C)=O)[C@]3(C)[C@H](CC[C@@]4(C)[C@H](c5ccoc5)OC(=O)[C@H]5O[C@@]534)[C@@]12C [khivorin]
ΔΨm [1, 8]: −0.145
ROS (reactive oxygen species; [8]): 0.187
GE-HTS (OXPHOS gene expression; [8]): −0.144
nucOX (nuOXPHOS transcripts; [8]): −0.022
mitoOX (mtOXPHOS transcripts; [8]): −0.423
cyt c (cytochrome c; [8]): 0.229
Viability (C2C12 myotubes; [8]): 0.807
MTT [2, 8]: −1.421

CC1=C2C(O)C(=O)OC3CC4C(C)(C)C(=O)C=C[C@]4(C)C(CC1)[C@]23C (some centres unmarked) [merogedunin]
ΔΨm [1, 4]: −0.214
ROS (reactive oxygen species; [4]): 0.741
GE-HTS (OXPHOS gene expression; [4]): −0.254
nucOX (nuOXPHOS transcripts; [4]): −0.160
mitoOX (mtOXPHOS transcripts; [4]): −0.350
cyt c (cytochrome c; [4]): 0.490
Viability (C2C12 myotubes; [4]): −0.222
MTT [2, 4]: −0.645

COc1ccc2c(c1)C1(C)CCC(O)CC1CC2 (centres unmarked)
ΔΨm [1, 5]: −0.840
ROS (reactive oxygen species; [5]): 0.559
GE-HTS (OXPHOS gene expression; [5]): −0.375
nucOX (nuOXPHOS transcripts; [5]): −0.350
mitoOX (mtOXPHOS transcripts; [5]): −0.270
cyt c (cytochrome c; [5]): −0.087
Viability (C2C12 myotubes; [5]): −1.078
MTT [2, 5]: −2.017

N=C(N)N/N=C/c1c(Cl)cccc1Cl [guanabenz]
ΔΨm [1, 5]: −1.073
ROS (reactive oxygen species; [5]): 1.527
GE-HTS (OXPHOS gene expression; [5]): −0.428
nucOX (nuOXPHOS transcripts; [5]): −0.286
mitoOX (mtOXPHOS transcripts; [5]): −0.563
cyt c (cytochrome c; [5]): 0.420
Viability (C2C12 myotubes; [5]): −0.404
MTT [2, 5]: −0.886

COc1ccc2c(=O)ccoc2c1 [7-methoxychromone]
ΔΨm [1, 5]: −0.875
ROS (reactive oxygen species; [5]): 0.919
GE-HTS (OXPHOS gene expression; [5]): −0.759
nucOX (nuOXPHOS transcripts; [5]): −0.818
mitoOX (mtOXPHOS transcripts; [5]): −0.451
cyt c (cytochrome c; [5]): 0.511
Viability (C2C12 myotubes; [5]): −0.999
MTT [2, 5]: −0.963

O[C@H]1[C@H]2c3cc4c(cc3CN3CCC(=C[C@@H]1O)[C@H]23)OCO4 [Lycorine, reference compound]
ΔΨm [1, 5]: −2.570
ROS (reactive oxygen species; [5]): −2.639
GE-HTS (OXPHOS gene expression; [5]): −1.119
nucOX (nuOXPHOS transcripts; [5]): 1.103
mitoOX (mtOXPHOS transcripts; [5]): −5.387
cyt c (cytochrome c; [5]): −1.288
Viability (C2C12 myotubes; [5]): −2.922
MTT [2, 5]: −4.612

CC(C)[C@@H](C)/C=C/[C@@H](C)[C@H]1CC[C@H]2C3=CC=C4C[C@@H](O)CC[C@]4(C)[C@H]3CC[C@]12C [ergosterol]
ΔΨm [1, 5]: −0.489
ROS (reactive oxygen species; [5]): −0.198
GE-HTS (OXPHOS gene expression; [5]): 0.231
nucOX (nuOXPHOS transcripts; [5]): 0.420
mitoOX (mtOXPHOS transcripts; [5]): −0.240
cyt c (cytochrome c; [5]): 0.386
Viability (C2C12 myotubes; [5]): −0.792
MTT [2, 5]: −1.864

CC1(C)C2C[C@@H](O)[C@]3(C)C(CC[C@@]4(C)[C@H](c5ccoc5)OC(=O)C5OC543)[C@@]2(C)C(=O)C[C@H]1O (some centres unmarked) [1-deacetoxy-1-oxo-3,7-dideacetylkhivorin]
ΔΨm (composite Z-score) ([1]; Conc 20 μM): −0.321
ROS (composite Z-score) (reactive oxygen species; Conc 20 μM): 0.626
GE-HTS (composite Z-score) (OXPHOS gene expression; Conc 20 μM): −0.525
nucOX (composite Z-score) (nuOXPHOS transcripts; Conc 20 μM): −0.704
mitoOX (composite Z-score) (mtOXPHOS transcripts; Conc 20 μM): −0.020
cyt c (composite Z-score) (cytochrome c; Conc 20 μM): −0.411
Viability (composite Z-score) (C2C12 myotubes; Conc 20 μM): −0.413
MTT (composite Z-score) ([2]; Conc 20 μM): −1.776

N#Cc1c(Cl)c(Cl)c(Cl)c(C#N)c1Cl [tetrachloroisophthalonitrile]
ΔΨm (composite Z-score) ([1]; Conc 20 μM): −4.269
ROS (composite Z-score) (reactive oxygen species; Conc 20 μM): −3.975
GE-HTS (composite Z-score) (OXPHOS gene expression; Conc 20 μM): −3.510
nucOX (composite Z-score) (nuOXPHOS transcripts; Conc 20 μM): −3.990
mitoOX (composite Z-score) (mtOXPHOS transcripts; Conc 20 μM): −1.780
cyt c (composite Z-score) (cytochrome c; Conc 20 μM): −5.292
Viability (composite Z-score) (C2C12 myotubes; Conc 20 μM): −5.297
MTT (composite Z-score) ([2]; Conc 20 μM): −6.675

O=C(c1ccccc1)c1ccc2n1CCC2C(=O)O (centres unmarked) [ketorolac]
ΔΨm [1, 9]: 0.136
ΔΨm [1, 5]: −0.825
ROS (reactive oxygen species; [9]): 0.482
ROS (reactive oxygen species; [5]): 0.939
GE-HTS (OXPHOS gene expression; [9]): 0.096
GE-HTS (OXPHOS gene expression; [5]): −0.344
nucOX (nuOXPHOS transcripts; [9]): −0.072
nucOX (nuOXPHOS transcripts; [5]): −0.468
mitoOX (mtOXPHOS transcripts; [9]): 0.412
mitoOX (mtOXPHOS transcripts; [5]): −0.033
cyt c (cytochrome c; [9]): 0.315
cyt c (cytochrome c; [5]): −0.707
Viability (C2C12 myotubes; [9]): −0.773
Viability (C2C12 myotubes; [5]): −0.363
MTT [2, 9]: −0.563
MTT [2, 5]: −0.053
